These results are taken from patent publication US8338465B2, “Cyclic carboxylic acid rhodanine derivatives for the treatment and prevention of tuberculosis” (priority 2006, dated 2012).

Molecules are shown by their SMILES.

For the assay, the target named is T1, dihydrolipoamide acyltransferase (DlaT) (Mycobacterium tuberculosis, UniProt P9WIS7).
T1 sequence (P9WIS7 1-553): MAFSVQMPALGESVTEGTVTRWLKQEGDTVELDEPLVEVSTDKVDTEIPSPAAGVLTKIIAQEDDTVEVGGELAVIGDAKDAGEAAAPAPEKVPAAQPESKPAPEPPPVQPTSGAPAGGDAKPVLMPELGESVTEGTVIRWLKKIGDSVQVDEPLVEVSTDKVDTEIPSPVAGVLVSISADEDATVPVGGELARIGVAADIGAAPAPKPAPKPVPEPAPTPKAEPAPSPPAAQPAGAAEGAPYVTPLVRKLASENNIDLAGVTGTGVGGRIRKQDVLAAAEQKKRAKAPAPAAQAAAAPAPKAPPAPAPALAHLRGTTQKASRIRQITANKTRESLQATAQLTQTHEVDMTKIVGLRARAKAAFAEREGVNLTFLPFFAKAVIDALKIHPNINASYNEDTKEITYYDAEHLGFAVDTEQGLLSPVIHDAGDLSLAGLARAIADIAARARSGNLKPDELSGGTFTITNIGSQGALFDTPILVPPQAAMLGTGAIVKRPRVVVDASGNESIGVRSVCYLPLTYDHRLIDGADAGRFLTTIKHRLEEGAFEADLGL
The experiment in a line: DlaT inhibition (Dlat IC50); DTNB peroxidase assay with Lpd, DlaT and AhpD. The class given is biochemical. The settings on record: Dlat IC50 category.
In the case of `O=C(O)c1ccccc1NN1C(=O)C(=Cc2ccc(-c3ccccc3O)o2)SC1=S` [Compound D12, 2-{5-[1-[5-(2-Hydroxy-phenyl)-furan-2-yl]-methylidene]-4-oxo-2-thioxo-thiazolidin-3-ylamino}-benzoic acid], the IC50 is under 10 µM.
Compound `Cc1ccc(-c2ccc(C=C3SC(=S)N(Nc4ccccc4C(=O)O)C3=O)o2)cc1` [Compound D13, 2-{4-oxo-2-thioxo-5-[1-(5-p-tolyl-furan-2-yl)-methylidene]-thiazolidin-3-ylamino}-benzoic acid] returned an IC50 of under 10 µM.
`COc1ccc(-c2ccc(C=C3SC(=S)N(Nc4ccccc4C(=O)O)C3=O)o2)cc1` [Compound D14, 2-{5-[1-[5-(4-methoxy-phenyl)-furan-2-yl]-methylidene]-4-oxo-2-thioxo-thiazolidin-3-ylamino}-benzoic acid] yielded an IC50 of under 10 µM.
On to `Cc1ccccc1-c1cccc(C=C2SC(=S)N(Nc3ccccc3C(=O)O)C2=O)n1` [Compound D15, 2-[4-Oxo-2-thioxo-5-(6-o-tolyl-pyridin-2-ylmethylene)-thiazolidin-3-ylamino]-benzoic acid], for which the IC50 lay within 11 to 40 µM.
In the case of `O=C(O)c1cccc(NN2C(=O)C(=Cc3ccc(-c4ccccc4Cl)o3)SC2=S)c1` [Compound D16, 3-{5-[1-[5-(2-chloro-phenyl)-furan-2-yl]-methylidene]-4-oxo-2-thioxo-thiazolidin-3-ylamino}-benzoic acid], the half-inhibitory concentration (IC50) is under 10 µM.
As to `O=C(O)c1cccc(NN2C(=O)C(=Cc3ccc(-c4cccc(C(F)(F)F)c4)o3)SC2=S)c1` [Compound D17, 3-{5-[1-[5-(3-trifluoromethyl-phenyl)-furan-2-yl]-methylidene]-4-oxo-2-thioxo-thiazolidin-3-ylamino}-benzoic acid], the IC50 is under 10 µM.
Compound `O=C(O)c1cccc(NN2C(=O)C(=Cc3ccc(-c4ccc(Cl)cc4)o3)SC2=S)c1` [Compound D18, 3-{5-[1-[5-(4-chloro-phenyl)-furan-2-yl]-methylidene]-4-oxo-2-thioxo-thiazolidin-3-ylamino}-benzoic acid] had an IC50 of under 10 µM.
The compound `COc1ccc(-c2ccc(C=C3SC(=S)N(Nc4ccccc4C(=O)O)C3=O)o2)c(OC)c1` [Compound D19, 2-{5-[1-[5-(2,4-dimethoxy-phenyl)-furan-2-yl]-methylidene]-4-oxo-2-thioxo-thiazolidin-3-ylamino}-benzoic acid] returned an IC50 of under 10 µM.
In the case of `O=C(O)c1ccc(NN2C(=O)C(=Cc3ccc(-c4ccccc4Cl)o3)SC2=S)cc1` [Compound D20, 4-{5-[5-(2-Chloro-phenyl)-furan-2-ylmethylene]-4-oxo-2-thioxo-thiazolidin-3-ylamino}-benzoic acid], the IC50 was in the range of 11 to 40 µM.
`O=C(O)c1ccc(NN2C(=O)C(=Cc3ccc(-c4ccc(Cl)cc4)o3)SC2=S)cc1` [Compound D21, 4-{5-[5-(4-Chloro-phenyl)-furan-2-ylmethylene]-4-oxo-2-thioxo-thiazolidin-3-ylamino}-benzoic acid] gave an IC50 of under 10 µM.
Consider `O=C(O)c1ccccc1NN1C(=O)C(=Cc2ccc(-c3ccc4[nH]ccc4c3)o2)SC1=S` [Compound D22, 2-{5-[5-(1H-Indol-5-yl)-furan-2-ylmethylene]-4-oxo-2-thioxo-thiazolidin-3-ylamino}-benzoic acid], for which the IC50 is under 10 µM.
For `Cc1cc(Cl)ccc1-c1ccc(C=C2SC(=S)N(Nc3ccccc3C(=O)O)C2=O)o1` [Compound D23, 2-{5-[1-[5-(4-chloro-2-methyl-phenyl)-furan-2-yl]-methylidene]-4-oxo-2-thioxo-thiazolidin-3-ylamino}-benzoic acid], the concentration for half-maximal inhibition (IC50) is under 10 µM.
`Cc1cccc(C)c1-c1ccc(C=C2SC(=S)N(Nc3ccccc3C(=O)O)C2=O)o1` [Compound D24, 2-{5-[5-(2,6-Dimethyl-phenyl)-furan-2-ylmethylene]-4-oxo-2-thioxo-thiazolidin-3-ylamino}-benzoic acid] yielded a half-maximal inhibitory concentration (IC50) of under 10 µM.
To `COc1cc(F)ccc1-c1ccc(C=C2SC(=S)N(Nc3ccccc3C(=O)O)C2=O)o1` [Compound D25, 2-{5-[1-[5-(4-fluoro-2-methoxy-phenyl)-furan-2-yl]-methylidene]-4-oxo-2-thioxo-thiazolidin-3-ylamino}-benzoic acid] belongs under 10 µM; to `COc1ccc(-c2ccc(C=C3SC(=S)N(Nc4ccccc4C(=O)O)C3=O)o2)cc1F` [Compound D26, 2-{5-[1-[5-(3-fluoro-4-methoxy-phenyl)-furan-2-yl]-methylidene]-4-oxo-2-thioxo-thiazolidin-3-ylamino}-benzoic acid], under 10 µM.
The compound `O=C(O)c1ccccc1NN1C(=O)C(=Cc2ccc(-c3ccccc3OCc3ccccc3)o2)SC1=S` [Compound D27, 2-{5-[1-[5-(2-benzyloxy-phenyl)-furan-2-yl]-methylidene]-4-oxo-2-thioxo-thiazolidin-3-ylamino}-benzoic acid] showed an IC50 of 11 to 40 µM.
In turn, `Cc1cc(C)c(-c2ccc(C=C3SC(=S)N(Nc4ccccc4C(=O)O)C3=O)o2)c(C)c1` [Compound D28, 2-{4-Oxo-2-thioxo-5-[5-(2,4,6-trimethyl-phenyl)-furan-2-ylmethylene]-thiazolidin-3-ylamino}-benzoic acid] registered an IC50 of under 10 µM.
Compound `Cc1cc(N(C)C)ccc1-c1ccc(C=C2SC(=S)N(Nc3ccccc3C(=O)O)C2=O)o1` [Compound D29, 2-{5-[5-(4-Dimethylamino-2-methyl-phenyl)-furan-2-ylmethylene]-4-oxo-2-thioxo-thiazolidin-3-ylamino}-benzoic acid] yielded an IC50 of 11 to 40 µM.
The compound `CSc1ccccc1-c1ccc(C=C2SC(=S)N(Nc3ccccc3C(=O)O)C2=O)o1` [Compound D30, 2-{5-[1-[5-(2-methylsulfanyl-phenyl)-furan-2-yl]-methylidene]-4-oxo-2-thioxo-thiazolidin-3-ylamino}-benzoic acid] returned an IC50 of under 10 µM.
As for `CN(C)c1ccc(-c2ccc(C=C3SC(=S)N(Nc4ccccc4C(=O)O)C3=O)o2)cc1` [Compound D31, 2-{5-[5-(4-Dimethylamino-phenyl)-furan-2-ylmethylene]-4-oxo-2-thioxo-thiazolidin-3-ylamino}-benzoic acid], the 50% inhibitory concentration (IC50) was 11 to 40 µM.
For `O=C(O)c1ccccc1NN1C(=O)C(=Cc2ccc(-c3ccccc3Oc3ccccc3)o2)SC1=S` [Compound D33, 2-{4-oxo-5-[1-[5-(2-phenoxy-phenyl)-furan-2-yl]-methylidene]-2-thioxo-thiazolidin-3-ylamino}-benzoic acid] the value was under 10 µM.
In turn, `Cc1ccccc1-c1ccc(C=C2SC(=S)N(Nc3ccccc3C(=O)O)C2=O)s1` [Compound D34, 2-{4-oxo-2-thioxo-5-[1-(5-o-tolyl-thiophen-2-yl)-methylidene]-thiazolidin-3-ylamino}-benzoic acid] came in with a concentration for half-maximal inhibition (IC50) of under 10 µM.
Compound `O=C(O)c1ccccc1NN1C(=O)C(=Cc2ccc(-c3ccccc3Cl)s2)SC1=S` [Compound D35, 2-{4-oxo-2-thioxo-5-[1-(5-2-chloro-thiophen-2-yl)-methylidene]-thiazolidin-3-ylamino}-benzoic acid] yielded an IC50 of under 10 µM.
Compound `O=C(O)c1ccccc1NN1C(=O)C(=Cc2ccc(-c3ccccc3F)s2)SC1=S` [Compound D36, 2-{4-oxo-2-thioxo-5-[1-(5-2-fluoro-thiophen-2-yl)-methylidene]-thiazolidin-3-ylamino}-benzoic acid] displayed an IC50 of under 10 µM.

As usually defined, the IC50 is the concentration at which inhibition is half-maximal.
